Reference: patent US20250179439A1, “PRODUCTION METHOD FOR ORGANOID” (KEIO UNIVERSITY, priority 2022, published 2025)
Residues, ends and D or L forms follow the SMILES beside them. *: point of attachment. Cbz = O=C(OCc1ccccc1)*

System: CRC organoids
Assay: Drug screening assay (HTS) of GFP-labelled organoids in suspension culture, 384-well
Assay type: cell-based, human
Source text: In the present study, a total of 23 organoid lineages were subjected to screening. Prior to screening, the organoids were labeled with a green fluorescent protein (GFP) using PB-CMV-MCS-EF1α-GFP-Puro PiggyBac (PB513B-1, available from System Biosciences, LLC.) and Super PiggyBac transposase (PB210-20, available from System Biosciences, LLC.) vectors.
The organoids were dissociated with TrypLE Express (available from Thermo Fisher Scientific, Inc.) and filtered using a cell strainer (pore size: 20 μm, available from Sysmex Corporation). Using a cell sorter (SH800, available from Sony Corporation), 800 to 1,500 cells were sorted into each well of a 384-well plate.
The organoids were treated with a test compound 24 hours or 96 hours after seeding. The organoids were grown for 6 to 8 days, and the colony area was measured based on the fluorescence of GFP using an IN Cell Analyzer 6000 confocal imaging system (available from GE Healthcare Life Sciences). In addition, bright field imaging and luminescence-based ATP measurement were carried out using Cell3iMager duos (available from SCREEN Holdings Co., Ltd.) and CellTiter-Glo cell viability assay (available from Promega Corporation).
The bright field image was analyzed using software integrated into the Cell3iMager. […]

Row | Compound | cell death (maximum concentration of 1 μM, all screening plates (normal colon and CRC organoids), used to estimate the background signal) [%] | growth of organoids, CRC versus normal colon organoids (MANOVA of HTS drug responses) (CRC organoids compared with normal colon organoids)
1 | CC(C)C[C@@H](C=O)NC(=O)[C@H](CC(C)C)NC(=O)[C@H](CC(C)C)NC(=O)OCc1ccccc1 [MG-132] (Cbz-Leu-Leu-Leu-aldehyde) | 100 | –
2 | (+)-JQ1 | – | suppressed the growth of organoids in a cancer-specific manner
